Source: patent US9624224B2, “Inhibitors of Bruton's tyrosine kinase” (Pharmacyclics LLC, priority 2013, dated 2017)

Assays:
Assay type in all cases: biochemical
[1] = target: T1, Jak3 (Homo sapiens, UniProt P52333); assay: Jak3 kinase inhibition (in vitro kinase assay)
T1 sequence (P52333 1-1124): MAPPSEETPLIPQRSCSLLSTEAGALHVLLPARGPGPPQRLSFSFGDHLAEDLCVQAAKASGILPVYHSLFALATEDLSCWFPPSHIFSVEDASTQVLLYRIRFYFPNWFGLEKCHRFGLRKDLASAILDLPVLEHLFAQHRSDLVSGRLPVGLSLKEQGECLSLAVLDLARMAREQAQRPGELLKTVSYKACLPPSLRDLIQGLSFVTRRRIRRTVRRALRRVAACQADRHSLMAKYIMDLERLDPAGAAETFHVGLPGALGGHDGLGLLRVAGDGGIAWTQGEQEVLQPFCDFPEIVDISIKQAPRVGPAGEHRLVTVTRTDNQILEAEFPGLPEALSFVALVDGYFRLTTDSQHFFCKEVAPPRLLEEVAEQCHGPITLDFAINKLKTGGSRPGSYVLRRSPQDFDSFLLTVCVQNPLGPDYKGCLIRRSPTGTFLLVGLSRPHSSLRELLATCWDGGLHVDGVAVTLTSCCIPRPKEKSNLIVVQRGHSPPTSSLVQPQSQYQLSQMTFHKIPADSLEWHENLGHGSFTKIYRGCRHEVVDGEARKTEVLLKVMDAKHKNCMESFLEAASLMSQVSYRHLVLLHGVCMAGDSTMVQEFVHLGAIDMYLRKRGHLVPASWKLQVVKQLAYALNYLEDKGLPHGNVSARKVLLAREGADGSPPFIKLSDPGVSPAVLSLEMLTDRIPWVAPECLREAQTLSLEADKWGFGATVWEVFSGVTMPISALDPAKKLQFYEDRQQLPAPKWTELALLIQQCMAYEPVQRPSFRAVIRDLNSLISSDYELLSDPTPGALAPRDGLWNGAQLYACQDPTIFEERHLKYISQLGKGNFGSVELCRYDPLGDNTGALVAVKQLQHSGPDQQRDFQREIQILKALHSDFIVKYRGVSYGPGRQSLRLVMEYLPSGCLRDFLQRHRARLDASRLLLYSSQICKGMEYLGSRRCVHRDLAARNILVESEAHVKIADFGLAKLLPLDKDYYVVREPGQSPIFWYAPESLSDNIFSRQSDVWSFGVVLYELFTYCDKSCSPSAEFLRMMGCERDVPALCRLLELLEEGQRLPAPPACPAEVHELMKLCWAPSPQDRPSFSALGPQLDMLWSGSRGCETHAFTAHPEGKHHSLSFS

[2] = target: EGFR (Homo sapiens, UniProt P00533); assay: EGFR kinase inhibition (in vitro kinase assay)
[3] = target: T2, BTK (Homo sapiens, UniProt Q06187); assay: Btk in vitro inhibitory activity (TR-FRET, mobility shift or radiometric filter binding kinase assay); conditions: determined using one of the methods outlined in Example 47a, 47b, and 47c
T2 construct: purified from insect cells as a full-length construct containing a N-terminal 6×-His tag; His6 (N); made in house; host or cells: insect cells (baculovirus, Sf21)
Method in brief: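 Full-length N-His-tagged human Btk from insect cells, 8 nM, preincubated 15 min with inhibitor and 0.2 mg/mL poly-Glu-Tyr (4:1) in pH 7.5 Hepes/MgCl2 buffer, then 1 μM ATP for 120 min at RT; radiometric P81 filter read-out. Alternatives: TR-FRET at [ATP]=Km (0.5 nM Btk, IC50 from Ki(app)) or mobility-shift PSR with 12-point 3× curves, 4-parameter fit.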

[4] = target: Lck (Homo sapiens, UniProt P06239); assay: Lck kinase inhibition (in vitro kinase assay)
Method in brief: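 TR-FRET kinase assay at [ATP]=Km^ATP, detected with Eu-anti-pTyr antibody and streptavidin-APC after EDTA quench; 665/615 nm ratio read. Ki(app) fitted across compound concentrations, converted to IC50 via IC50={Ki(app)/(1+[ATP]/Km^ATP)}+[E]total/2; [Lck]total=6 nM.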

T2 sequence (Q06187 whole entry): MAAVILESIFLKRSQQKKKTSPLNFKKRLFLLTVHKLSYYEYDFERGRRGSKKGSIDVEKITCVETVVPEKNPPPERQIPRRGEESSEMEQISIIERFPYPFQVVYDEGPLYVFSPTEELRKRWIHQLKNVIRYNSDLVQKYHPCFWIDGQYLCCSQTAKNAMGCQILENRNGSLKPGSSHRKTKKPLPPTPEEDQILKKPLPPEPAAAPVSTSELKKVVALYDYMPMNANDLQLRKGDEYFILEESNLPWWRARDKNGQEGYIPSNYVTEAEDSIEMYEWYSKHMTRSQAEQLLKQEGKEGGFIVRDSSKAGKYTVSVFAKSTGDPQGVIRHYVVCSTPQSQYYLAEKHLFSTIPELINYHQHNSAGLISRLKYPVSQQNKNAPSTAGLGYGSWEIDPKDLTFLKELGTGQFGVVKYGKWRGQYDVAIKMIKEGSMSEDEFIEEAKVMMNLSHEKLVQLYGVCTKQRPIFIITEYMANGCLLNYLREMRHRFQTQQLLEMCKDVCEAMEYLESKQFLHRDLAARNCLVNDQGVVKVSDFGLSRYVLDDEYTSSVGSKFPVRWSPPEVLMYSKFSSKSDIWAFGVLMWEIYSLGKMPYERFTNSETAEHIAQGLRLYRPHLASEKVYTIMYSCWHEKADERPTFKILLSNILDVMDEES
Lck, sequence (P06239 whole entry, species assumed): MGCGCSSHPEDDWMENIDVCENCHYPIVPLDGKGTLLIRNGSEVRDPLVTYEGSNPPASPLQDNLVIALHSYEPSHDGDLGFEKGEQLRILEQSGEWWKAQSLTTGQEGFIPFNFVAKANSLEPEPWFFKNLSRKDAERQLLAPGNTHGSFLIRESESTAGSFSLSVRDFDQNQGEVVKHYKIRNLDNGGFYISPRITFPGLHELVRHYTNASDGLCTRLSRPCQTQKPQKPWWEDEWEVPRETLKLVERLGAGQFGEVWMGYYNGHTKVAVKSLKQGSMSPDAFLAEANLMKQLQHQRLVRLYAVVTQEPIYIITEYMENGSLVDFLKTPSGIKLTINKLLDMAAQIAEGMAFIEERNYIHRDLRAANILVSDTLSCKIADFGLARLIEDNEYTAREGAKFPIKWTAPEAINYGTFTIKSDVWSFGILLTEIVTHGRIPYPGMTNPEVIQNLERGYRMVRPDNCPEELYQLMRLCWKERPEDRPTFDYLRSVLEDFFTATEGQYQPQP
EGFR, sequence (P00533 25-1210, species assumed): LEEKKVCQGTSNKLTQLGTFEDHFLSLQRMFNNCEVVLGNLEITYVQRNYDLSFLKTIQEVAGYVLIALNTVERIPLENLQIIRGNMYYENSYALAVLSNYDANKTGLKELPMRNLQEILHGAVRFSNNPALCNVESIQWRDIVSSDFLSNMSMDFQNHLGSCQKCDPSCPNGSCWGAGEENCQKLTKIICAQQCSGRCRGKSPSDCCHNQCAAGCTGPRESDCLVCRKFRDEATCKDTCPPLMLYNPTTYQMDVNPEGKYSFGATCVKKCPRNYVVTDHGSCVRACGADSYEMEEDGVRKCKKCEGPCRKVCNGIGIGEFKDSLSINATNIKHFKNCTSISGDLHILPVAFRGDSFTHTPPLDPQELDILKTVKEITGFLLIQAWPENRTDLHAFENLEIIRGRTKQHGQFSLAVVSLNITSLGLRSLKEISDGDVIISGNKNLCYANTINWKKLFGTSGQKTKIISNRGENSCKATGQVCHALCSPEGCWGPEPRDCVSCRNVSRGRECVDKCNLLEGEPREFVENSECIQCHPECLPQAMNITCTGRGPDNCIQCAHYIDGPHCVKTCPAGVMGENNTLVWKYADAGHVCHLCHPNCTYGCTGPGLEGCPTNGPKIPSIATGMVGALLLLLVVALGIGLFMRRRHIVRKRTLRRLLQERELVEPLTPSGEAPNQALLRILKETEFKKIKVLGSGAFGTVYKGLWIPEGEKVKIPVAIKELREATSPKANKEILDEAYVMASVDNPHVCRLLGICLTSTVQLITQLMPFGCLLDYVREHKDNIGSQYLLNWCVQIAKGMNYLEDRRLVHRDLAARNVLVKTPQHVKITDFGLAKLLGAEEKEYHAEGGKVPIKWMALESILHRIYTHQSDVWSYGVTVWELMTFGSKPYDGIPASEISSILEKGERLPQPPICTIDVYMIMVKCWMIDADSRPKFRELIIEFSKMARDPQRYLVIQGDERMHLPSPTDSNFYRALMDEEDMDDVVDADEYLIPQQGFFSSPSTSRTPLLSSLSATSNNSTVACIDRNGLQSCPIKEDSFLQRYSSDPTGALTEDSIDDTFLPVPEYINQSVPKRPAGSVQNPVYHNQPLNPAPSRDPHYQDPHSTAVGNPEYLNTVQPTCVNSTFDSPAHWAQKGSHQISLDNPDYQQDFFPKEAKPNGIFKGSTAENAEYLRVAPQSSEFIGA

| IC50 [1] | IC50 [2] | IC50 [3] | IC50 [4] | SMILES |
| --- | --- | --- | --- | --- |
| > 10 µM | 0.1 to 1 µM | < 0.1 µM | > 10 µM | Cc1ccnc(NC(=O)c2ccc(-c3nn([C@H]4CC[C@H](NC(=O)/C=C/CN(C)C)CC4)c4ncnc(N)c34)cc2)c1 [Example 28, 4-(4-amino-1-((1,4-trans)-4-((E)-4-(dimethylamino)but-2-enamido)cyclohexyl)-1H-pyrazolo[3,4-d]pyrimidin-3-yl)-N-(4-methylpyridin-2-yl)benzamide] |
| > 10 µM | 0.1 to 1 µM | < 0.1 µM | > 10 µM | Cc1ccnc(NC(=O)c2ccc(-c3nn([C@H]4CC[C@H](NC(=O)/C=C/CN(C)C5CC5)CC4)c4ncnc(N)c34)cc2)c1 [Example 29, 4-(4-amino-1-((1,4-trans)-4-((E)-4-(cyclopropyl(methyl)amino)but-2-enamido)cyclohexyl)-1H-pyrazolo[3,4-d]pyrimidin-3-yl)-N-(4-methylpyridin-2-yl)benzamide] |
